Test results published in ChEMBL document CHEMBL1157539, “Thousands of chemical starting points for antimalarial lead identification” (Nature, 2010).

Test system: Plasmodium falciparum
Experiment: GSK_TCMDC: Inhibition of Plasmodium falciparum 3D7 in whole erythrocytes, using parasite LDH activity as an index of growth.
Type: functional, organism-based
Conditions: Plasmodium falciparum, 3D7

Row | Compound | XC50
1 | CCN(CC)CCN(Cc1ccc(-c2ccc(C(F)(F)F)cc2)cc1)C(=O)Cn1c(CCc2ccc(F)cc2)nc(=O)c2ccccc21 | 1070 nM
2 | Cn1cnc2c(Nc3ccncc3)nc(-c3ccc4c(c3)OCO4)nc21 | 1110 nM
3 | CCOC(=O)c1ccc(NC(=O)N(Cc2ccc(-c3cccc(CN4CCNCC4)c3)cc2)C2CCN(Cc3ccccc3)CC2)cc1 | 748 nM
4 | CCc1cn(C)c2c(N3CCCC3=O)cc(C(=O)N[C@@H](Cc3ccccc3)[C@H](O)CNC(C)(C)c3cccc(C(F)(F)F)c3)cc12 | 106 nM
5 | Cc1cc(CN2CCC(C(=O)Nc3ccc(-c4nc5ccccc5[nH]4)cc3)CC2)oc1C | 1450 nM
6 | CS(=O)(=O)CCNc1nccc(N2CCc3ncnc(Nc4ccc(OCc5cccc(F)c5)c(Cl)c4)c3C2)n1 | 132 nM
7 | O=C(NCCN1CCOCC1)c1ccc(CNC(=O)c2ccc(O)c(-c3ccc(Cl)c(Cl)c3)c2)cc1 | 929 nM
8 | CN(C)Cc1c(O)ccc2oc(Cc3ccccc3)cc12 | 912 nM
9 | Cc1cc(C2CCN(CCCCNC(=O)c3ccc(-c4ccc(C#N)cc4)cc3)CC2)c(C)cc1OCCO | 808 nM
10 | O=C(Nc1ccc(Cn2nc(Cl)c(N3CCCNCC3)cc2=O)cc1)Nc1ccc(-c2ccccc2)cc1 | 843 nM
11 | Cc1nnc2c(N(C(=O)NCCc3ccccc3)C(=O)NCCc3ccccc3)cc3cc(Cl)ccc3n12 | 954 nM
12 | COc1cccc(C2CCN(CCN3CCC(NC(=O)c4ccc(-c5ccc(C#N)cc5)cc4)CC3)CC2)c1 | 699 nM
13 | COc1cc(C=NN=c2cc(C)[nH]c3ccccc23)cc(OC)c1OC | 730 nM
14 | Oc1ccc2c(CNCCc3ccccc3)c(O)ccc2c1CNCCc1ccccc1 | 104 nM
15 | COc1ccccc1CN1CCC(CNC(=O)c2cc(-c3cccc(C(F)(F)F)c3)cs2)C1 (stereo not drawn) | 1310 nM
16 | CN1N=C2c3ccccc3CCC2C1c1ccc(C#N)cc1 (stereo not drawn) | 655 nM
17 | O=C1CC(C(=O)O)CC(=O)N1 | 763 nM
18 | Clc1ccc2c(NN=Cc3ccccc3)ccnc2c1 | 755 nM
19 | Cc1cccc2nc(-c3ccc(-c4ccc(NC(=O)Nc5cccc(C#N)c5)cc4)cc3)[nH]c12 | 114 nM
20 | CC(=NNC(=N)N)c1ccc2ccc3ccccc3c2c1 | 892 nM
21 | CCn1cc(-c2cc(C(=O)Nc3ccc(OC)cc3C)c3ccccc3n2)c(C)n1 | 975 nM
22 | COc1cc(CCNc2nc(NCc3cccc4ccccc34)nc(N3CCC(N)CC3)n2)ccc1O | 787 nM
23 | COCCNCc1nc(-c2ccc3c(Nc4ccc(Cl)cc4F)ccnc3c2)cs1 | 1080 nM
24 | N=C(N)c1ccc(-c2cc3ccc(C(=N)N)cc3[nH]2)cc1 | 59.9 nM
25 | COc1ccc(-c2cnc3[nH]cc(-c4ccncc4)c3c2)cc1OC | 126 nM

Row | Compound | XC50
26 | O=C(O)c1cc(C(F)(F)F)co1 | 825 nM
27 | Cc1cc(-c2nc3cncc(-c4cccc(CN5CCCC5Cc5cccnc5)c4)c3n2C)nn1C (stereo not drawn) | 132 nM
28 | Cc1cccc2nc(-c3ccc(-c4ccc(CN5CCC(CCN6CCCCC6)CC5)cc4)cc3)[nH]c12 | 144 nM
29 | CCc1ccc(CN(Cc2ccc(C)cc2)Cc2ccc(NC(C)=O)cc2)cc1 | 962 nM
30 | O=C1CC(C(=O)Nc2cccc(-c3cccc(-c4nc5ccccc5[nH]4)c3)c2)c2ccccc2N1 (stereo not drawn) | 980 nM
31 | O=C(/C=C/c1ccc(Cl)c(Cl)c1)NC1CCC(CN2CCC(c3c[nH]c4ccccc34)CC2)CC1 (stereo not drawn) | 235 nM
32 | Cc1cc2nc(-c3ccc(OCC(=O)NCc4cccc(C(F)(F)F)c4)cc3)[nH]c2cc1C | 988 nM
33 | COc1cc2ccccc2cc1OCCCN1CCN(CC(c2ccc(F)cc2)N2CCN(C(C)C)CC2)CC1 (stereo not drawn) | 749 nM
34 | C=CCc1ccc(C2CCN(CCCCNC(=O)c3ccc(NC(=O)c4ccc(Cl)cc4)cc3)CC2)cc1 | 1120 nM
35 | FC(F)(F)c1ccc2[nH]c(-c3ccc(-c4cccc(CNCC5CCCO5)c4)cc3)nc2c1 (stereo not drawn) | 250 nM
36 | CO/C(=C\C=C\c1cc2cc(Cl)c(Cl)cc2[nH]1)C(=O)NCCN1CCCCC1 | 1400 nM
37 | COc1cc(NC(=O)c2sc(-c3ccc(Cl)cc3)cc2NC(=O)CN2CC[C@@H](O)C2)ccc1OCCN1CCCC1 | 802 nM
38 | Clc1cccc(C=NNc2nc(=Nc3ccccc3)[nH]c(=Nc3ccccc3)[nH]2)c1 | 844 nM
39 | O=C(Nc1ccccc1)N1CCC(CN2CCOC(c3ccccc3)(c3ccccc3)C2)CC1 | 206 nM
40 | COc1ccc2nc3cc(Cl)ccc3c(Nc3ccc(O)c(CN4CC5CCC(CC5)C4)c3)c2c1 | 172 nM
41 | CSc1ccc(CN2CCC(NC(=O)c3ccc(-c4cccc(C(F)(F)F)c4)s3)CC2)cc1 | 1220 nM
42 | CCCCCCCn1c(=O)c(C(=O)Nc2c(C)cccc2C)c(O)c2ccccc21 | 910 nM
43 | CN(C)CCOc1ccnc2ccc(NC(=O)Cc3ccc(-c4ccncc4)c4ccccc34)cc12 | 277 nM
44 | CCCCCC(C)C(C)c1cc(O)c2c(c1)OC(C)(C)CC2c1cc[n+]([O-])cc1 (stereo not drawn) | 499 nM
45 | CC(Nc1nncc(-c2cccc(F)c2)n1)c1ccc(F)cc1 (stereo not drawn) | 791 nM
46 | O=C(Nc1cccc(C2=NCCCN2)c1)Nc1cccc(C2=NCCCN2)c1 | 561 nM
47 | Cc1cc(NCCC(=O)Nc2ccccc2)nc(NCc2ccccc2C)n1 | 657 nM
48 | c1ccc(CNc2nc(NCCc3c[nH]cn3)nc(NCc3cccc4ccccc34)n2)cc1 | 1110 nM
49 | N#Cc1cc(C(=O)c2cc(Cl)ccc2O)cn(-c2cccc(C(F)(F)F)c2)c1=O | 1130 nM
50 | C=CCOc1ccc(-c2c(C)[nH]c(C)c(Br)c2=O)cc1 | 283 nM

Row | Compound | XC50
51 | COc1ccc(CNc2nc(NCc3ccccc3)c3cc(OC)c(OC)cc3n2)cc1OC | 540 nM
52 | Clc1ccccc1CNc1noc(-c2sccc2Br)n1 | 787 nM
53 | Nc1nc(N)c2c(Cc3ccccc3)cccc2n1 | 828 nM
54 | CC(C)N1CCN(C(CN2CCN(CCCOc3cccc(-c4ccccc4)c3)CC2)c2ccc(F)cc2)CC1 (stereo not drawn) | 892 nM
55 | COc1ccc(NCc2cccc(-c3cccc(CNCCc4ccccc4)c3)c2)cc1 | 1050 nM
56 | CNC(=O)c1cnc(Nc2ccc(OCC(O)CN(C)C)cc2)nc1Nc1cccc(OC)c1 (stereo not drawn) | 319 nM
57 | CCCCc1ccc(NC(=O)Nc2ccc3c(c2)CCNCC3)cc1 | 585 nM
58 | O=C(Nc1ccc(SC(F)(F)F)cc1)Nc1ccnc2ccccc12 | 746 nM
59 | O=C(Nc1ccnc2ccccc12)NC1CCN(Cc2ccccc2)CC1 | 988 nM
60 | Cc1cc(N)nc2ccc(-c3ccc(CN)cc3)cc12 | 621 nM
61 | CN1CCC(C(=O)N(Cc2ccc(-c3ccc(CNCCc4ccc(S(C)(=O)=O)cc4)cn3)cc2)C2Cc3ccccc3C2)CC1 | 665 nM
62 | Cc1cccc2nc(-c3cccc(-c4ccc(NC(=O)C(C)(C)c5ccccn5)cc4)c3)[nH]c12 | 685 nM
63 | Cc1cc(N2CCC(N(C)C)C2)nc(Nc2ccc(Cl)cc2)n1 (stereo not drawn) | 517 nM
64 | CCCCCCn1c(Sc2ccc(C#N)c([N+](=O)[O-])c2)nnc1-c1ccc(Cl)cc1 | 832 nM
65 | COc1ccccc1-n1ccnc1SCC(=O)Nc1cc(C(F)(F)F)ccc1Cl | 9.3 nM
66 | CC(C)(C)c1cc(Cn2ccnc2)cc(C(C)(C)C)c1O | 1040 nM
67 | Nc1nc(N)c2c(ccc3c2ccn3Cc2ccc(-c3ccccc3)cc2)n1 | 48.3 nM
68 | Cc1cc(=O)[nH]c(-n2nc(C)cc2NC(=O)C2(c3ccc(Cl)cc3)CCCC2)n1 | 288 nM
69 | CN1CCN(c2ccc(Nc3nccc(-c4cnn5ncccc45)n3)cc2Cl)CC1 | 833 nM
70 | CN1CCC(COc2ccc(CN3CCC(NC(=O)c4cccc(Cl)c4)CC3)cc2)CC1 | 889 nM
71 | Cc1ccc2nc(C)n(C3CCN(C(=O)C4(c5ccccc5)CC4)CC3)c2c1 | 821 nM
72 | CCN(CC)CCN1C(=O)c2oc3ccc(Cl)cc3c(=O)c2C1c1ccc(SC)cc1 (stereo not drawn) | 1060 nM
73 | CC(C)(CNCc1ccccc1)c1nc(-c2ccc(Cl)c(O)c2)c(-c2ccncc2)[nH]1 | 537 nM
